Measurements reported in patent US20100004159A1, “SUBSTITUTED IMIDAZOLONE DERIVATIVES, PREPARATIONS AND USES” (GENFIT, priority 2006, published 2010).

Assays:
[1] = molecular target: T1, hPPARα (Homo sapiens, UniProt Q07869); assay: Gal4-hPPARα transactivation in COS-7 cells (luciferase); type: cell-based; conditions: for EC50: Gal4-hPPARα chimera, COS-7 cells, 24 hours
T1 construct: DNA fragments amplified by PCR and corresponding to the DEF domains of human PPARα, PPARγ, and PPARδ nuclear receptors; expressed in transfected cells; host or cells: COS-7
T1 sequence (Q07869 239-466 limits assumed): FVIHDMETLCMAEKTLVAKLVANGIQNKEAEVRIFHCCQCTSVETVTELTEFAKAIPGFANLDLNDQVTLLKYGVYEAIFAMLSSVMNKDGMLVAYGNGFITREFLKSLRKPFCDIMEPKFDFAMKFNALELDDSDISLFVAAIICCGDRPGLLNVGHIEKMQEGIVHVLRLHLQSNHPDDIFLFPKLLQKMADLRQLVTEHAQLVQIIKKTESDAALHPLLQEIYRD
Protocol: The activation of PPARs was evaluated in vitro using a monkey kidney fibroblast line (COS-7) by measuring the transcriptional activity of chimeras made up of the DNA binding domain of the Gal4 transcription factor of yeast and of the binding domain to the ligand of the different PPARs. The compounds were tested at doses of between 0.01 and 100 μM on Gal4-PPARα, γ, and δ chimeras.
COS-7 cells came from ATCC (American type culture collection) and were cultivated in a DMEM medium supplemented with 10% (vol/vol) of fetal calf serum, 100 U/ml of penicillin (Gibco, Paisley, UK) and 2 mM of L-Glutamine (Gibco, Paisley, UK). The cells were incubated at 37° C. under humid atmosphere containing 5% CO2.
The plasmids Gal4(RE)_TkpGL3, pGal4-hPPARα, pGal4-hPPARγ, pGal4-hPPARδ and pGal4-φ have been described in the literature (Raspe E et al., 1999). The constructions pGal4-hPPARα, pGal4-hPPARγ, and pGal4-hPPARδ were obtained by cloning, in the pGal4-φ vector, DNA fragments amplified by PCR and corresponding to the DEF domains of human PPARα, PPARγ, and PPARδ nuclear receptors.
The COS-7 cells in suspension were transfected with 150 ng of DNA per well, with a pGal4-PPAR/Gal4(RE)_TkpGL3 ratio of 1/10, in presence of 10% fetal calf serum. The cells were then plated in 96-well plates (4×10^4 cells/well), then incubated for 24 hours at 37° C. Activation with the test compounds was performed for 24 hours at 37° C. in a medium without serum. At the end of the experiment, the cells were lysed and the luciferase activity was determined using the Steady-Lite™ HTS (Perkin Elmert) or the Steady Glow Luciferase kit (Promega), in accordance with the provider's recommendations.
The compounds according to the invention were tested at doses between 0,01 and 100 μM on the 3 PPAR isoforms. The results obtained are presented in detail under FIG. 1a.

[2] = test system: db/db mouse; assay: Plasma lipids, glycemia and insulinemia in db/db mouse; type: in vivo; conditions: 28-day treatment per os
Protocol: The insulin-resistance and hypolipemic properties of the compounds according to the invention were evaluated in vivo by assaying the plasma lipid, by measuring the plasma glucose and insulin levels, and by an analysis of the gene expression of PPAR target genes, after a per os treatment with the compounds according to the invention. These tests were performed in the db/db mouse
Female db/db mice were kept on a 12 hour/12 hour light/dark cycle at a constant temperature of 20±3° C. After a one week acclimatization period, the mice were weighed and divided into groups of 8 animals selected so as to render uniform the distribution of their body weights and their plasma lipid rates, determined before the experiment. The tested compounds were suspended in carboxymethylcellulose (Sigma C4888) and administered by intra-gastric tube feeding once a day for 28 days at the chosen dose. The animals had free access to food and water (standard diet). Taking of food and weight gain are recorded throughout the experiment. At the end of the experiment, the animals were anesthetized after a 4 hour fast, a blood sample was taken using (EDTA) anticoagulant, then the mice were weighed and euthanized. The plasma was separated by centrifugation at 3000 rotations/minute for 20 minutes. The samples were kept at +4° C.
Plasma lipid concentrations (total cholesterol and triglycerides) were measured by enzymatic assays (bioMerieux-Lyon-France) according to the provider's recommendations.
Murine plasma glucose was measured according to an enzyme-colorimetric method using a Glucose RTU kit (Biomerieux). Glucose is transformed into gluconic acid under the action of glucose oxidase; the reaction releases hydrogen peroxide. Hydrogen peroxide was measured according to the Trinder reaction which, under the action of a peroxidase and in the presence of phenol and amino-4-antipyrine, produces water and a colored product, quinoneimine. The color intensity, due to the quinoneimine, is proportional to the amount of glucose present in the sample.
Murine insulin is measured using ELISA method (using the INSKR020 kit from provider Crystal chem.). A microplate is coated with a mouse anti-insulin antibody. Then, the serum to be assayed for insulin is placed onto the plate. A guinea pig anti-insulin antibody is used to recognize the complex formed by the mouse insulin and the anti-insulin monoclonal antibody. Finally an anti-guinea pig antibody labeled with peroxidase is added and bind to the guinea pig anti-insulin antibody. The colorimetric reaction is performed by adding an OPD (Ortho Phenyl Diamine) enzyme substrate. The intensity of the color is proportional to the amount of insulin present in the sample.

[3] = test system: Wistar rats under perfusion of angiotensin II; assay: Arterial pressure of Wistar rats under angiotensin II perfusion; type: in vivo, rat; conditions: angiotensin II perfusion 100 ng/kg/min; intravenous increasing doses 1, 3, 10 and 30 mpk
Protocol: This experimental procedure is intended to show the anti-hypertensive effects of the compounds according to the invention in Wistar rats in which hypertension is induced either by continuous intravenous administration of angiotensin II (example 21.1) or by repeated intravenous administration of angiotensin II (example 21.2). The animals were treated with the compounds according to the invention intravenously at increasing doses. To validate the study, the control animals were administered, in the same conditions, either the vehicle itself or a reference.
Wistar rats (males—200-250 g—5-6 weeks old—CERJ) were anesthetized for surgery using pentobarbital (50 mg/kg). A catheter was placed in the right jugular vein for the angiotensin II perfusion. A catheter was placed in the left jugular vein for the administration of the compounds according to the invention. The angiotensin II perfusion at 100 ng/kg/min was performed using an auto-syringe set at 5 ml/hour (vehicle NaCl 0.15M). A solution of Na2CO3/NaHCO3 (50 mM pH 9.6) served as the vehicle for the compounds according to the invention. Arterial pressure was measured using a sensor set in the carotid artery via a catheter.
The arterial pressure of the animal was measured for few minutes in basal conditions, before the angiotensin II perfusion was put into place. […]

activation of hPPARα (luciferase activity) ([1]; COS-7 cells transfected pGal4-hPPAR, 0.01 to 100 μM) | EC50 [1] [µM] | SMILES | glycemia ([2]; 10, 30 or 100 mpk) | insulinemia ([2]; 10, 30 or 100 mpk) | plasma free lipids level ([2]; 10, 30 or 100 mpk) | plasma triglycerides level ([2]; 10, 30 or 100 mpk) | arterial pressure: antagonist effect on angiotensin II [3] | glycemia ([2]; 100 mpk) | insulinemia ([2]; 100 mpk) | plasma free lipids level ([2]; 100 mpk) | plasma triglycerides level ([2]; 100 mpk)
activate the two PPAR isoforms | 3 | CCCCC1=NC2(CCCC2)C(=O)N1Cc1ccc(-c2cccc(OC(C)(C)C(=O)O)c2)cc1 [Compound 1, 2-butyl-1-[(3′-((1-carboxy-1,1-dimethylmethyl)oxy)biphenyl-4-yl)methyl]-4-spirocyclopentyl-1H-imidazol-5(4H)-one] | decreased significantly (and dose-dependently) | decreased significantly (and dose-dependently) | decreased significantly (and dose-dependently) | decreased significantly (and dose-dependently) | antagonist effect on angiotensin II in a significant and dose-dependent way |  |  |  | 
 | 0.6 | CCCCC1=NC2(CCCCC2)C(=O)N1Cc1ccc(-c2cccc(OC(C)(C)C(=O)O)c2)cc1 [Compound 21, 2-butyl-1-[(3′-((1-carboxy-1,1-dimethylmethyl)oxy)biphenyl-4-yl)methyl]-4-spirocyclohexyl-1H-imidazol-5(4H)-one] |  |  |  |  | antagonist effect on angiotensin II in a significant and dose-dependent way | decreased significantly | decreased significantly | decreased significantly | decreased significantly
